{
  "source": "patent US10118131B2",
  "about": "“Method for preventing microbial growth on a filtration membrane” (KEMIRA OYJ, priority 2011, dated 2018)",
  "key": {"[1]": {"experiment": "Flux of membrane before and after soaking in biocide in synthetic sea water (flat sheet cell)", "settings": "for Initial flux: before soaking", "method": "Flux and salt rejection of fresh membrane were measured before and after soaking. The membrane was placed in a flat sheet cell (Alfa Laval LabM20). The operating conditions were, feed pressure 20 bar (for sea water membrane 55 bar), salt (synthetic sea water prepared according to ASTM standard D1141), temperature 25° C. The flux measurement was done for 3 hours.\nSoaking was done by mixing biocide with synthetic sea water. The concentration of the added biocide in the synthetic sea water was for PFA 14 and 84 mg/l as active substance, for peracetic acid (PAA) 7, 18 and 35 mg/l as active substance and sodium hypochlorite 20 mg/l as active substance. PFA was added to the synthetic seawater as an equilibrium solution having PFA content 14 weight-%, PAA was added as an equilibrium solution having PAA content 35 weight-% and sodium hypochlorite having concentration of 15 weight-%.\nThe soaking time was 24 or 144 hours. Performic acid equilibrium solution was made by mixing in 1:1 weight proportion of a solution that contained 50% hydrogen peroxide with a solution that contained 75 weight-% formic acid, 12 weight-% sulfuric acid and 13 weight-% water. After soaking membranes were placed again to the flat sheet cell and salt rejection and flux were measured at the same conditions as before soaking."}, "[2]": {"experiment": "Laboratory scale continuous filtration experiment, PFA added continuously into feed", "method": "The impact of PFA on membrane was further studied by a laboratory scale continuous filtration experiment. The type of membrane used in the experiment was brackish water membrane (FilmTec BW30LE).\nThe continuous filtration has been done in parallel. From a single brackish water tank the water was pumped to two parallel lines with flat sheet cells having similar brackish water membrane. In one line PFA was added continuously into feed and in other line (control) there was no PFA addition. The filtration conditions were as follows: pressure 15 bar, salt (sea salt): 2 g/l, Temperature: 20° C., flow rate: 48 l/h, PFA dosing rate: 6.5 g/h equilibrium solution having PFA active substance concentration 14 weight-% (=19.8 ppm active substance/l of brackish water). Flux and conductivity of permeate and concentrate were monitored and collected over time (for 30 days)."}},
  "data": [
    {"molecule": "[Na+].[O-]Cl", "note": "[Hypochlorite, sodium hypochlorite]", "values": [
      {"measurement": "differences between flux before and after soaking", "setting": "[1]; not told", "result": "> 15", "unit": "%"}
    ]},
    {"molecule": "CC(=O)OO", "note": "[Peracetic acid, peracetic acid]", "values": [
      {"measurement": "Flux after soaking", "setting": "[1]; 7 mg/l active substance in synthetic sea water, soaking 144 hour", "result": 73},
      {"measurement": "Flux after soaking", "setting": "[1]; 18 mg/l active substance in synthetic sea water, soaking 144 hour", "result": 53},
      {"measurement": "Flux after soaking", "setting": "[1]; 35 mg/l active substance in synthetic sea water, soaking 144 hour", "result": 44},
      {"measurement": "Initial flux", "setting": "[1]; membrane later soaked at 7 mg/l active substance, 144 hour", "result": 86},
      {"measurement": "Initial flux", "setting": "[1]; membrane later soaked at 18 mg/l active substance, 144 hour", "result": 91},
      {"measurement": "Initial flux", "setting": "[1]; membrane later soaked at 35 mg/l active substance, 144 hour", "result": 86}
    ]},
    {"molecule": "O=COO", "note": "[Performic acid, performic acid]", "values": [
      {"measurement": "Flux after soaking", "setting": "[1]; 14 mg/l active substance in synthetic sea water, soaking 144 hour", "result": 84},
      {"measurement": "Flux after soaking", "setting": "[1]; 84 mg/l active substance in synthetic sea water, soaking 24 hour", "result": 95},
      {"measurement": "Initial flux", "setting": "[1]; membrane later soaked at 14 mg/l active substance, 144 hour", "result": 86},
      {"measurement": "Initial flux", "setting": "[1]; membrane later soaked at 84 mg/l active substance, 24 hour", "result": 98},
      {"measurement": "differences between flux before and after soaking", "setting": "[1]; soaked membranes of Table 1", "result": "less than 15%"},
      {"measurement": "Initial permeate flux", "setting": "[2]; 19.8 ppm active substance continuously in feed, 15 bar, sea salt 2 g/l, 20° C.", "result": 250, "unit": "g/h"},
      {"measurement": "Final permeate flux", "setting": "[2]; 19.8 ppm active substance continuously in feed, 30 days, 15 bar, sea salt 2 g/l, 20° C.", "result": 250, "unit": "g/h"},
      {"measurement": "changes in flux over test period", "setting": "[2]; FIG. 1 B, PFA added continuously, 30 days", "result": "small"}
    ]}
  ]
}
